Experiments:
Type in all cases: cell-based, human
WNT-TCF targets [1] = assay: RT-qPCR gene expression in mCC11 primary colon cancer cells
Procedure: (§1) RT-qPCR was performed as in Melotti et al. (2014, supra) using BioRad equipment and reagents. Cells cultured in nitro were treated with the desired concentration of drug in DMEM-F12 and reduced serum (2.5% FBS) for 16h, unless otherwise noted, and collected in Trizol (Sigma) before total RNA extraction and cDNA synthesis. Primers were as in Table 1. HPRT (gene encoding Hypoxanthine phosphoribosyltransferase 1) and βACTIN were used as housekeeping controls for normalization.
Primary colon cells CC14, CC36 and mCC11, colon cancer cell lines DLD1, HT29, Ls174T, melanoma cell line MeWo, glioblastoma cell lines U87 and U251, and the lung cancer cell line H358 were cultured in DMEM-F12 with 10% FBS under standard in nitro conditions.

WNT-TCF targets [2] = assay: RT-qPCR in cells dissociated from DLD1 xenograft tumors, treated in vitro; details: 16h, vs DMSO
Procedure: as §1
Four DLD1 regressed tumors were monitored after cessation of CAP2 treatment to determine recurrence after drug withdrawal. […] Tumor regrowth, however, could be due in principle to insufficient drug dosage or to the development of drug resistance. To test these possibilities the recurrent tumor was thus excised and the cells plated in vitro to test for the possible development of CAP2 resistance. One control in vivo cyclodextrin-treated tumor taken before reaching the legal (at around 21 day) limit was similarly processed to serve as control. […] The levels of WNT-TCF targets were generally lower in cells derived from tumors that were exposed in vivo to CAP2 in comparison to those in cells from tumors that were not treated with CAP2 (Figure 10). […] This consistent difference in the levels of several WNT-TCF targets raised the possibility that whereas tumor recurrence might be due to incomplete initial dosage, the recurring tumor harbored the memory of previous CAP2 treatment.

Epigenetic regulators [3] = assay: RT-qPCR of epigenetic regulators in MeWo cells; details: 0.5 µM
Procedure: as §1
(§2) The WNT-TCF-independent repressive activity of CAP2 on epigenetic regulators may be extrapolated to other cancer cells as it was also detected in HT29 and CC14 human colon cancer cells, in MeWo human melanoma cells as well as in U87 and U251 human glioma cells. In all these different human cancer cells, CAP2 (at 0.5 µM) modulated the expression of ZMYND8, SMARCAL1, TBLIXR1, SETD6 and TAF5Ls (Table 15).

Epigenetic regulators [4] = assay: RT-qPCR of epigenetic regulators in U87 cells; details: 0.5 µM
Procedure: as §1, §2

[5] = 1.25µM, 16h, batch 3, vs DMSO=1
[6] = DLD1 CAP2-treated tumor dissociated re-treated in vitro, 2.5µM
[7] = DLD1 CAP2-treated tumor dissociated re-treated in vitro, 5µM
[8] = DLD1 control tumor dissociated treated in vitro, 2.5µM
[9] = DLD1 control tumor dissociated treated in vitro, 5µM

## CC1=C(C)C(=O)O[C@@H]([C@](C)(O)[C@]2(O)CC[C@@]3(O)[C@@H]4CC=C5CC=CC(=O)[C@]5(C)[C@H]4CC[C@]23C)C1 [CAP2]
WNT-TCF targets [1]; [5]
  AXIN2 expression: 0.6
  LGR5 expression: 0.8
WNT-TCF targets [1]; 2.5µM, 16h, batch 3, vs DMSO=1
  AXIN2 expression: 0.5
  LGR5 expression: 0.3
WNT-TCF targets [1]; 5µM, 16h, batch 3, vs DMSO=1
  AXIN2 expression: 0.3
  LGR5 expression: 0.1
WNT-TCF targets [1]; 10µM, 16h, batch 3, vs DMSO=1
  AXIN2 expression: 0.3
  LGR5 expression: 0.04
WNT-TCF targets [1]; Table 7, 1.25µM, vs DMSO=1
  ASCL2 expression: 0.3
  AXIN2 expression: 0.6
  CDKN1A expression: 1.4
  LEF1 expression: 0.3
  LGR5 expression: 0.8
  cMYC expression: 0.5
WNT-TCF targets [1]; Table 7, 2.5µM, vs DMSO=1
  ASCL2 expression: 0.2
  AXIN2 expression: 0.5
  CDKN1A expression: 2.7
  LEF1 expression: 0.4
  LGR5 expression: 0.3
  cMYC expression: 0.3
WNT-TCF targets [1]; Table 7, 5µM, vs DMSO=1
  ASCL2 expression: 0.1
  AXIN2 expression: 0.3
  CDKN1A expression: 6.5
  LEF1 expression: 0.5
  LGR5 expression: 0.1
  cMYC expression: 0.1
WNT-TCF targets [1]; Table 7, 10µM, vs DMSO=1
  ASCL2 expression: 0.02
  AXIN2 expression: 0.3
  CDKN1A expression: 5.3
  LEF1 expression: 0.6
  LGR5 expression: 0.04
  cMYC expression: 0.1
WNT-TCF targets [2]; [6]
  ASCL2 expression: 0.05
  AXIN2 expression: 0.4
  LEF1 expression: 0.4
  LGR5 expression: 0.6
  cMYC expression: 0.2
WNT-TCF targets [2]; [7]
  ASCL2 expression: 0.1
  AXIN2 expression: 0.3
  LEF1 expression: 0.3
  LGR5 expression: 0.3
  cMYC expression: 0.1
WNT-TCF targets [2]; [8]
  ASCL2 expression: 0.1
  AXIN2 expression: 0.6
  LEF1 expression: 0.4
  LGR5 expression: 0.7
  cMYC expression: 0.3
WNT-TCF targets [2]; [9]
  ASCL2 expression: 0.1
  AXIN2 expression: 0.6
  LEF1 expression: 0.3
  LGR5 expression: 0.4
  cMYC expression: 0.3
Epigenetic regulators [3]
  EED expression: 0.5
  SETD6 expression: 1
  SMARCAL1 expression: 0.2
  TAF5L expression: 0.8
  TBL1XR1 expression: 0.2
  ZMYND8 expression: 0.1
Epigenetic regulators [4]
  EED expression: 0.2
  SETD6 expression: 0.3
  SMARCAL1 expression: 0.2
  TAF5L expression: 0.5
  TBL1XR1 expression: 0.2
  ZMYND8 expression: 0.1

From EP3248604A1, “AGENTS FOR MODULATION OF WNT-TCF SIGNALLING AND USES THEREOF” (UNIVERSITE DE GENEVE, priority 2016, dated 2017)
